# Data as given in BindingDB's records for doi:10.1016/j.bmcl.2003.09.069 (Sugen, 2003).
# Assay: Inhibitory activity against cellular Src protein tyrosine kinase using the actin ring assay
row,SMILES,IC50
1,"CNS(=O)(=O)c1ccc2c(c1)/C(=C/c1[nH]c3c(c1CCCN1CCC(O)CC1)CCCC3)C(=O)N2 [3-[1-{3-[3-(4-Hydroxy-piperidin-1-yl)-propyl]-4,5,6,7-tetrahydro-1H-indol-2-yl}-meth-(Z)-ylidene]-2-oxo-2,3-dihydro-1H-indole-5-sulfonic acid methylamide]",900 nM
2,"CCOC(=O)CN1CCN(CCCc2c(/C=C3\C(=O)Nc4ccc(S(=O)(=O)NC)cc43)[nH]c3c2CCCC3)CC1 [[4-(3-{2-[5-Methylsulfamoyl-2-oxo-1,2-dihydro-indol-(3Z)-ylidenemethyl]-4,5,6,7-tetrahydro-1H-indol-3-yl}-propyl)-piperazin-1-yl]-acetic acid ethyl ester]",900 nM
3,"CCS(=O)(=O)c1ccc2c(c1)/C(=C/c1[nH]c3c(c1CCCN1CCN(CCO)CC1)CCCC3)C(=O)N2 [5-Ethanesulfonyl-3-[1-(3-{3-[4-(2-hydroxy-ethyl)-piperazin-1-yl]-propyl}-4,5,6,7-tetrahydro-1H-indol-2-yl)-meth-(Z)-ylidene]-1,3-dihydro-indol-2-one]",1700 nM
4,"CCS(=O)(=O)c1ccc2c(c1)/C(=C/c1[nH]c3c(c1CCCN1CCC(O)CC1)CCCC3)C(=O)N2 [5-Ethanesulfonyl-3-[1-{3-[3-(4-hydroxy-piperidin-1-yl)-propyl]-4,5,6,7-tetrahydro-1H-indol-2-yl}-meth-(Z)-ylidene]-1,3-dihydro-indol-2-one]",800 nM
5,"CNS(=O)(=O)c1ccc2c(c1)/C(=C/c1[nH]c3c(c1CCCN1CCN(C)CC1)CCCC3)C(=O)N2 [3-[1-{3-[3-(4-Methyl-piperazin-1-yl)-propyl]-4,5,6,7-tetrahydro-1H-indol-2-yl}-meth-(Z)-ylidene]-2-oxo-2,3-dihydro-1H-indole-5-sulfonic acid methylamide]",100 nM
6,"CNS(=O)(=O)c1ccc2c(c1)/C(=C/c1[nH]c3c(c1CCCN1CCOCC1)CCCC3)C(=O)N2 [3-[1-[3-(3-Morpholin-4-yl-propyl)-4,5,6,7-tetrahydro-1H-indol-2-yl]-meth-(Z)-ylidene]-2-oxo-2,3-dihydro-1H-indole-5-sulfonic acid methylamide]",100 nM
7,"CNS(=O)(=O)c1ccc2c(c1)/C(=C/c1[nH]c3c(c1CN1CCOCC1)CCCC3)C(=O)N2 [3-[1-(3-Morpholin-4-ylmethyl-4,5,6,7-tetrahydro-1H-indol-2-yl)-meth-(Z)-ylidene]-2-oxo-2,3-dihydro-1H-indole-5-sulfonic acid methylamide]",1000 nM
8,"CNS(=O)(=O)c1ccc2c(c1)/C(=C/c1[nH]c3c(c1CCCN1CCN(CC(=O)O)CC1)CCCC3)C(=O)N2 [[4-(3-{2-[5-Methylsulfamoyl-2-oxo-1,2-dihydro-indol-(3Z)-ylidenemethyl]-4,5,6,7-tetrahydro-1H-indol-3-yl}-propyl)-piperazin-1-yl]-acetic acid]",> 10000 nM
9,"CCS(=O)(=O)c1ccc2c(c1)/C(=C/c1[nH]c3c(c1CCCN1CCN(CC(=O)O)CC1)CCCC3)C(=O)N2 [[4-(3-{2-[5-Ethanesulfonyl-2-oxo-1,2-dihydro-indol-(3Z)-ylidenemethyl]-4,5,6,7-tetrahydro-1H-indol-3-yl}-propyl)-piperazin-1-yl]-acetic acid]",10000 nM
10,"CNS(=O)(=O)c1ccc2c(c1)/C(=C/c1[nH]c3c(c1CCC(N)=O)CCCC3)C(=O)N2 [3-{2-[5-Methylsulfamoyl-2-oxo-1,2-dihydro-indol-(3Z)-ylidenemethyl]-4,5,6,7-tetrahydro-1H-indol-3-yl}-propionamide]",> 10000 nM
11,"CCS(=O)(=O)c1ccc2c(c1)/C(=C/c1[nH]c3c(c1CN1CCOCC1)CCCC3)C(=O)N2 [5-Ethanesulfonyl-3-[1-(3-morpholin-4-ylmethyl-4,5,6,7-tetrahydro-1H-indol-2-yl)-meth-(Z)-ylidene]-1,3-dihydro-indol-2-one]",5000 nM
12,"CCS(=O)(=O)c1ccc2c(c1)/C(=C/c1[nH]c3c(c1CCCN(C)C)CCCC3)C(=O)N2 [3-[1-[3-(3-Dimethylamino-propyl)-4,5,6,7-tetrahydro-1H-indol-2-yl]-meth-(Z)-ylidene]-5-ethanesulfonyl-1,3-dihydro-indol-2-one]",500 nM
13,"CCS(=O)(=O)c1ccc2c(c1)/C(=C/c1[nH]c3c(c1CCC(N)=O)CCCC3)C(=O)N2 [3-{2-[5-Ethanesulfonyl-2-oxo-1,2-dihydro-indol-(3Z)-ylidenemethyl]-4,5,6,7-tetrahydro-1H-indol-3-yl}-propionamide]",> 10000 nM
14,"CNS(=O)(=O)c1ccc2c(c1)/C(=C/c1[nH]c3c(c1CCCN1CCN(CCO)CC1)CCCC3)C(=O)N2 [3-[1-(3-{3-[4-(2-Hydroxy-ethyl)-piperazin-1-yl]-propyl}-4,5,6,7-tetrahydro-1H-indol-2-yl)-meth-(Z)-ylidene]-2-oxo-2,3-dihydro-1H-indole-5-sulfonic acid methylamide]",3000 nM
